This is an account of results in publication PMC5786431 (Journal of medicinal chemistry, 2017).

Series [1] is described as follows: Plasma concentration after oral administration. The class given is in vivo, mice. The following applies: 100 mg/kg in 0.5% CMC suspension p.o.; 0.5 and 4 h; among 14b, 14g, 24a, 24c, 28a, 28c.
The conditions of series [2]: intramuscular injection; cited from earlier work.

Take `Cc1cc(Cl)cc(C)c1C(=O)c1sc2cc(O)ccc2c1Oc1ccc(/C=C/C(=O)O)cc1` [Compound 28c, (E)-3-(4-((2-(4-chloro-2,6-dimethylbenzoyl)-6-hydroxybenzo[b]thiophen-3-yl)oxy)phenyl)acrylic acid]: in series [1], the plasma levels result is “highest plasma levels”. Same read-out and setting: under `Cc1cc(F)cc(C)c1C(=O)c1sc2cc(O)ccc2c1Oc1ccc(/C=C/C(=O)O)cc1` [Compound 24c] stands “highest plasma levels”; under `Cc1ccc(C(=O)c2sc3cc(O)ccc3c2Oc2ccc(/C=C/C(=O)O)cc2)c(C)c1` [Compound 28a, (E)-3-(4-((2-(2,4-dimethylbenzoyl)-6-hydroxybenzo[b]thiophen-3-yl)oxy)phenyl)acrylic acid], “highest plasma levels”. For the compound `C[C@]12CC[C@@H]3c4ccc(O)cc4C[C@@H](CCCCCCCCC[S+]([O-])CCCC(F)(F)C(F)(F)F)[C@H]3[C@@H]1CC[C@@H]2O` (stereo partly shown) [Compound 1, fulvestrant], the “lag to reach steady-state concentrations” value in series [2] is given as 3–6 month.
